Data from patent publication US9695155B2, “Herbicidal substituted pyrimidinyloxy benzene compounds” (E. I. DU PONT DE NEMOURS AND COMPANY, priority 2013, dated 2017).

Columns and labels:
Italian ryegrass [1] = assay: Test A preemergence; assay type: in vivo, Lolium multiflorum; settings: for Plant response rating, Ryegrass, Italian: 0 to 100 scale where 0 is no effect and 100 is complete control
Text: (§1) Seeds of plant species selected from barnyardgrass (Echinochloa crus-galli), kochia (Kochia scoparia), ragweed (common ragweed, Ambrosia elatior), Italian ryegrass (Lolium multiflorum), large (Lg) crabgrass (Digitaria sanguinalis), giant foxtail (Setaria faberii), morningglory (Ipomoea spp.), pigweed (Amaranthus retroflexus), velvetleaf (Abutilon theophrasti), wheat (Triticum aestivum), and corn (Zea mays) were planted into a blend of loam soil and sand and treated preemergence with a directed soil spray using test chemicals formulated in a non-phytotoxic solvent mixture which included a surfactant.
(§2) At the same time, plants selected from these crop and weed species and also blackgrass (Alopecurus myosuroides), and galium (catchweed bedstraw, Galium aparine) were planted in pots containing the same blend of loam soil and sand and treated with postemergence applications of test chemicals formulated in the same manner. Plants ranged in height from 2 to 10 cm and were in the one- to two-leaf stage for the postemergence treatment. Treated plants and untreated controls were maintained in a greenhouse for approximately 10 days, after which time all treated plants were compared to untreated controls and visually evaluated for injury. Plant response ratings, summarized in Table A, are based on a 0 to 100 scale where 0 is no effect and 100 is complete control. A dash (-) response means no test result.

Heteranthera limosa = assay: Test B flooded paddy test; assay type: in vivo; settings: Flood, 250 g ai/ha; 0 to 100 scale where 0 is no effect and 100 is complete control
Outline: (§3)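 Visual ratings on a 0 to 100 scale, where 100 means complete control, compared treated plants with controls after 13 to 15 days in a greenhouse. Treatment went into paddy water 3 cm deep over the soil, applied to plants at the 2-leaf stage.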

Italian ryegrass [2] = assay: Test A postemergence; assay type: in vivo, Lolium multiflorum; settings: for Plant response rating, Ryegrass, Italian: 0 to 100 scale, 0 no effect, 100 complete control
Text: as §1, §2

pigweed [3] = assay: Test A postemergence; assay type: in vivo, Amaranthus retroflexus; settings: for Plant response rating, Pigweed: 0 to 100 scale, 0 no effect, 100 complete control
Outline: (§4)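 Visual 0–100 rating (100 = complete control) taken about 10 d post-treatment relative to untreated checks. Preemergence: directed soil spray on sown loam/sand pots. Postemergence: seedlings 2–10 cm, 1–2 leaf. Non-phytotoxic solvent formulation with surfactant.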

blackgrass = assay: Test A postemergence; assay type: in vivo, Alopecurus myosuroides
Text: as §1, §2

kochia [4] = assay: Test A preemergence; assay type: in vivo, Kochia scoparia; settings: for Plant response rating, Kochia: 0 to 100 scale where 0 is no effect and 100 is complete control
Outline: as §4

wheat = assay: Test A postemergence; assay type: in vivo, Triticum aestivum; settings: for Plant response rating, Wheat: 0 to 100 scale, 0 no effect, 100 complete control
Outline: as §4

ragweed [5] = assay: Test A preemergence; assay type: in vivo, Ambrosia elatior; settings: for Plant response rating, Ragweed: 0 to 100 scale where 0 is no effect and 100 is complete control
Outline: as §4

barnyardgrass [6] = assay: Test B flooded paddy test; assay type: in vivo, Echinochloa crus-galli; settings: Flood, 250 g ai/ha; 0 to 100 scale where 0 is no effect and 100 is complete control
Outline: as §3

kochia [7] = assay: Test A postemergence; assay type: in vivo, Kochia scoparia
Outline: as §4

pigweed [8] = assay: Test A preemergence; assay type: in vivo, Amaranthus retroflexus; settings: for Plant response rating, Pigweed: 0 to 100 scale where 0 is no effect and 100 is complete control
Outline: as §4

rice = assay: Test B flooded paddy test; assay type: in vivo, Oryza sativa; settings: Flood, 250 g ai/ha; 0 to 100 scale where 0 is no effect and 100 is complete control
Outline: as §3

corn = assay: Test A postemergence; assay type: in vivo, Zea mays
Outline: as §4

giant foxtail [9] = assay: Test A preemergence; assay type: in vivo, Setaria faberii; settings: for Plant response rating, Foxtail, Giant: 0 to 100 scale where 0 is no effect and 100 is complete control
Outline: as §4

barnyardgrass [10] = assay: Test A postemergence; assay type: in vivo, Echinochloa crus-galli
Outline: as §4

sedge, umbrella = assay: Test B flooded paddy test; assay type: in vivo, Cyperus difformis; settings: Flood, 250 g ai/ha; 0 to 100 scale where 0 is no effect and 100 is complete control
Outline: as §3

barnyardgrass [11] = assay: Test A preemergence; assay type: in vivo, Echinochloa crus-galli; settings: for Plant response rating, Barnyardgrass: 0 to 100 scale where 0 is no effect and 100 is complete control
Outline: as §4

ragweed [12] = assay: Test A postemergence; assay type: in vivo, Ambrosia elatior; settings: for Plant response rating, Ragweed: 0 to 100 scale, 0 no effect, 100 complete control
Outline: as §4

galium = assay: Test A postemergence; assay type: in vivo, Galium aparine
Text: as §1, §2

giant foxtail [13] = assay: Test A postemergence; assay type: in vivo, Setaria faberii
Outline: as §4

[14] = 31 g ai/ha, 0 to 100 scale, 0 no effect, 100 complete control
[15] = 125 g ai/ha, 0 to 100 scale where 0 is no effect and 100 is complete control
[16] = 31 g ai/ha, visual, approximately 10 days
[17] = 125 g ai/ha, 0 to 100 scale, 0 no effect, 100 complete control
[18] = 1000 g ai/ha, 0 to 100 scale, 0 no effect, 100 complete control, approx. 10 days
[19] = 1000 g ai/ha, 0 to 100 scale, 0 no effect, 100 complete control

Clc1cnc(Oc2ccccc2-n2ccnc2)nc1 [Compound 100]
Ryegrass, Italian plant response rating (0 to 100 scale) (Italian ryegrass [1]; 31 g ai/ha): 0
Plant response rating, Ryegrass, Italian (Italian ryegrass [1]; 125 g ai/ha): 0
Plant response rating, Ducksalad (Heteranthera limosa): 0
Plant response rating, Ryegrass, Italian (Italian ryegrass [2]; 31 g ai/ha): 0
Plant response rating, Pigweed (pigweed [3]; 31 g ai/ha): 0
Plant response rating, Blackgrass (blackgrass; [14]): 0
Plant response rating, Blackgrass (blackgrass; [15]): 0
Kochia plant response rating (0 to 100 scale) (kochia [4]; 31 g ai/ha): 0
Plant response rating, Kochia (kochia [4]; 125 g ai/ha): 0
Plant response rating, Wheat (wheat; 31 g ai/ha): 0
Ragweed plant response rating (0 to 100 scale) (ragweed [5]; 31 g ai/ha): 0
Plant response rating, Ragweed (ragweed [5]; 125 g ai/ha): 0
Plant response rating, Barnyardgrass (barnyardgrass [6]): 15
Plant response rating, Kochia (kochia [7]; [14]): 0
Plant response rating, Kochia (kochia [7]; [15]): 0
Pigweed plant response rating (0 to 100 scale) (pigweed [8]; 31 g ai/ha): 0
Plant response rating, Pigweed (pigweed [8]; 125 g ai/ha): 0
Plant response rating, Rice (rice): 0
Plant response rating, Corn (corn; [14]): 0
Plant response rating, Corn (corn; [15]): 0
Foxtail, Giant plant response rating (0 to 100 scale) (giant foxtail [9]; 31 g ai/ha): 0
Plant response rating, Foxtail, Giant (giant foxtail [9]; 125 g ai/ha): 0
Plant response rating, Barnyardgrass (barnyardgrass [10]; [14]): 0
Plant response rating, Barnyardgrass (barnyardgrass [10]; [15]): 0
Plant response rating, Sedge, Umbrella (sedge, umbrella): 0
Barnyardgrass plant response rating (0 to 100 scale) (barnyardgrass [11]; 31 g ai/ha): 0
Plant response rating, Barnyardgrass (barnyardgrass [11]; 125 g ai/ha): 0
Plant response rating, Ragweed (ragweed [12]; 31 g ai/ha): 0
Plant response rating, Galium (galium; [14]): 0
Plant response rating, Galium (galium; [15]): 10
Plant response rating, Foxtail, Giant (giant foxtail [13]; [14]): 0
Plant response rating, Foxtail, Giant (giant foxtail [13]; [15]): 0

FCc1cccc(Oc2ncc(F)cn2)c1-n1cc(Cl)cn1 [Compound 249]
Plant response rating, Ryegrass, Italian (Italian ryegrass [1]; [16]): 0
Ryegrass, Italian plant response rating (0 to 100 scale) (Italian ryegrass [1]; 125 g ai/ha): 30
Plant response rating, Ducksalad (Heteranthera limosa): 70
Plant response rating, Ryegrass, Italian (Italian ryegrass [2]; 31 g ai/ha): 0
Plant response rating, Ryegrass, Italian (Italian ryegrass [2]; 125 g ai/ha): 0
Plant response rating, Pigweed (pigweed [3]; 31 g ai/ha): 60
Plant response rating, Pigweed (pigweed [3]; 125 g ai/ha): 100
Plant response rating, Blackgrass (blackgrass; [14]): 60
Plant response rating, Blackgrass (blackgrass; [17]): 80
Plant response rating, Kochia (kochia [4]; [16]): 0
Kochia plant response rating (0 to 100 scale) (kochia [4]; 125 g ai/ha): 40
Plant response rating, Wheat (wheat; 31 g ai/ha): 0
Plant response rating, Wheat (wheat; 125 g ai/ha): 0
Plant response rating, Ragweed (ragweed [5]; [16]): 0
Ragweed plant response rating (0 to 100 scale) (ragweed [5]; 125 g ai/ha): 0
Plant response rating, Barnyardgrass (barnyardgrass [6]): 0
Plant response rating, Kochia (kochia [7]; [14]): 20
Plant response rating, Kochia (kochia [7]; [17]): 80
Plant response rating, Pigweed (pigweed [8]; [16]): 90
Pigweed plant response rating (0 to 100 scale) (pigweed [8]; 125 g ai/ha): 90
Plant response rating, Rice (rice): 0
Plant response rating, Corn (corn; [14]): 0
Plant response rating, Corn (corn; [17]): 10
Plant response rating, Foxtail, Giant (giant foxtail [9]; [16]): 0
Foxtail, Giant plant response rating (0 to 100 scale) (giant foxtail [9]; 125 g ai/ha): 0
Plant response rating, Barnyardgrass (barnyardgrass [10]; [14]): 0
Plant response rating, Barnyardgrass (barnyardgrass [10]; [17]): 60
Plant response rating, Sedge, Umbrella (sedge, umbrella): 60
Plant response rating, Barnyardgrass (barnyardgrass [11]; [16]): 0
Barnyardgrass plant response rating (0 to 100 scale, 0 is no effect, 100 is complete control) (barnyardgrass [11]; 125 g ai/ha): 0
Plant response rating, Ragweed (ragweed [12]; 31 g ai/ha): 10
Plant response rating, Ragweed (ragweed [12]; 125 g ai/ha): 70
Plant response rating, Galium (galium; [14]): 20
Plant response rating, Galium (galium; [17]): 30
Plant response rating, Foxtail, Giant (giant foxtail [13]; [14]): 0
Plant response rating, Foxtail, Giant (giant foxtail [13]; [17]): 60

Fc1cnc(Oc2cccc(Br)c2-n2cc(OCC(F)(F)F)cn2)nc1 [Compound 157]
Plant response rating, Ryegrass, Italian (Italian ryegrass [1]; [16]): 0
Plant response rating, Ryegrass, Italian (Italian ryegrass [1]; 125 g ai/ha): 0
Plant response rating, Ducksalad (Heteranthera limosa): 80
Plant response rating, Ryegrass, Italian (Italian ryegrass [2]; 31 g ai/ha): 0
Ryegrass, Italian plant response rating (Italian ryegrass [2]; [15]): 20
Plant response rating, Pigweed (pigweed [3]; 31 g ai/ha): 90
Pigweed plant response rating (pigweed [3]; [15]): 100
Plant response rating, Blackgrass (blackgrass; [14]): 30
Blackgrass plant response rating (blackgrass; [15]): 50
Plant response rating, Kochia (kochia [4]; [16]): 60
Plant response rating, Kochia (kochia [4]; 125 g ai/ha): 90
Plant response rating, Wheat (wheat; 31 g ai/ha): 0
Wheat plant response rating (wheat; [15]): 0
Plant response rating, Ragweed (ragweed [5]; 125 g ai/ha): 30
Plant response rating, Barnyardgrass (barnyardgrass [6]): 35
Plant response rating, Kochia (kochia [7]; [14]): 60
Kochia plant response rating (kochia [7]; [15]): 100
Plant response rating, Pigweed (pigweed [8]; [16]): 90
Plant response rating, Pigweed (pigweed [8]; 125 g ai/ha): 90
Plant response rating, Rice (rice): 35
Plant response rating, Corn (corn; [14]): 0
Corn plant response rating (corn; [15]): 40
Plant response rating, Foxtail, Giant (giant foxtail [9]; [16]): 70
Plant response rating, Foxtail, Giant (giant foxtail [9]; 125 g ai/ha): 100
Plant response rating, Barnyardgrass (barnyardgrass [10]; [14]): 10
Barnyardgrass plant response rating (barnyardgrass [10]; [15]): 80
Plant response rating, Sedge, Umbrella (sedge, umbrella): 75
Plant response rating, Barnyardgrass (barnyardgrass [11]; [16]): 20
Plant response rating, Barnyardgrass (barnyardgrass [11]; 125 g ai/ha): 80
Plant response rating, Ragweed (ragweed [12]; 31 g ai/ha): 20
Ragweed plant response rating (ragweed [12]; [15]): 50
Plant response rating, Galium (galium; [14]): 60
Galium plant response rating (galium; [15]): 90
Plant response rating, Foxtail, Giant (giant foxtail [13]; [14]): 10
Foxtail, Giant plant response rating (giant foxtail [13]; [15]): 80

Fc1cccc(Oc2ncc(Cl)cn2)c1-n1cc(-c2cccc(C(F)(F)F)c2)nn1 [Compound 276]
Ryegrass, Italian plant response rating (Italian ryegrass [1]; [18]): 0
Plant response rating, Ryegrass, Italian (Italian ryegrass [2]; 1000 g ai/ha): 0
Plant response rating, Pigweed (pigweed [3]; 1000 g ai/ha): 80
Plant response rating, Blackgrass (blackgrass; [19]): 20
Kochia plant response rating (kochia [4]; [18]): 0
Plant response rating, Wheat (wheat; 1000 g ai/ha): 0
Ragweed plant response rating (ragweed [5]; [18]): 0
Plant response rating, Kochia (kochia [7]; [19]): 40
Pigweed plant response rating (pigweed [8]; [18]): 0
Plant response rating, Corn (corn; [19]): 10
Foxtail, Giant plant response rating (giant foxtail [9]; [18]): 0
Plant response rating, Barnyardgrass (barnyardgrass [10]; [19]): 20
Barnyardgrass plant response rating (barnyardgrass [11]; [18]): 0
Plant response rating, Ragweed (ragweed [12]; 1000 g ai/ha): 30
Plant response rating, Galium (galium; [19]): 20
Plant response rating, Foxtail, Giant (giant foxtail [13]; [19]): 20
